The source made the active and inactive calls. How the calls were made is not given here.
Test system: rodent carcinogenicity bioassays, tumor incidence
Experiment: CCRIS carcinogenicity studies
Method in brief: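 Archive of carcinogenicity, mutagenicity, tumor promotion and tumor inhibition results drawn from journals, NCI reports and other sources, expert-reviewed; covers 1985-2011 and is no longer updated.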

Measured: carcinogen call

O[C@@H]1[C@@H]2O[C@@H]2C=C[C@H]1O
active: Species: MOUSE, Strain/Sex: SWISS/FEMALE, Route: INTRAPERITONEAL, Dose: 0, 2.7, 13.7 UMOL ADMINISTERED AS 3 UNEQUAL DOSES (1/7, 2/7, AND 4/7 OF THE TOTAL DOSE) OVER A 2-WK PERIOD (STUDY DURATI, Dose: 0, 2.7, 13.7 UMOL ADMINISTERED AS 3 UNEQUAL DOSES (1/7, 2/7, AND 4/7 OF THE TOTAL DOSE) OVER A 2-WK PERIOD (STUDY DURATI, Tumor Site: Type of Lesion: LUNG: ADENOMA active; positive | Species: MOUSE, Strain/Sex: SWISS/FEMALE, Route: INTRAPERITONEAL, Dose: 0, 13.7 UMOL ADMINISTERED AS 3 UNEQUAL DOSES (1/7, 2/7, AND 4/7 OF THE TOTAL DOSE) OVER A 2-WK PERIOD (STUDY DURATION: 2, Tumor Site: Type of Lesion: LUNG: ADENOMA active; positive | Species: MOUSE, Strain/Sex: SWISS/MALE, Route: INTRAPERITONEAL, Dose: 0, 2.7, 13.7 UMOL ADMINISTERED AS 3 UNEQUAL DOSES (1/7, 2/7, AND 4/7 OF THE TOTAL DOSE) OVER A 2-WK PERIOD (STUDY DURATI, Dose: 0, 2.7, 13.7 UMOL ADMINISTERED AS 3 UNEQUAL DOSES (1/7, 2/7, AND 4/7 OF THE TOTAL DOSE) OVER A 2-WK PERIOD (STUDY DURATI, Tumor Site: Type of Lesion: LUNG: ADENOMA active; positive | Species: MOUSE, Strain/Sex: SWISS/MALE, Route: INTRAPERITONEAL, Dose: 0, 13.7 UMOL ADMINISTERED AS 3 UNEQUAL DOSES (1/7, 2/7, AND 4/7 OF THE TOTAL DOSE) OVER A 2-WK PERIOD (STUDY DURATION: 2, Tumor Site: Type of Lesion: LUNG: ADENOMA active; positive

Cc1c2ccccc2c(C=O)c2ccc3ccccc3c12
active: Species: RAT, Strain/Sex: SPRAGUE-DAWLEY/FEMALE (13/GROUP), Route: SUBCUTANEOUS, Dose: 0.2 UMOL 3X A WK FOR 20 DOSES (STUDY DURATION: 52 WK), Tumor Site: Type of Lesion: MAMMARY: ADENOCARCINOMA active; positive (15%) | Species: RAT, Strain/Sex: SPRAGUE-DAWLEY/FEMALE (13/GROUP), Route: SUBCUTANEOUS, Dose: 0.2 UMOL 3X A WK FOR 20 DOSES (STUDY DURATION: 52 WK), Tumor Site: Type of Lesion: SUBCUTANEOUS, SARCOMA active; positive (85%)

[O-][Br+2]([O-])O
active: Species: Hamster, Strain/Sex: Syrian golden/Male (20/group), Route: Oral, Dose: 0, 125, 250, 500, 2000 ppm in drinking water for 89 wk, study duration 89 wk, Dose: 0, 125, 250, 500, 2000 ppm in drinking water for 89 wk, study duration 89 wk, Tumor Site: Type of Lesion: Kidney: Renal adenoma (0/20, 0/20, 1/20, 2/20, 4/20) active; positive | Species: Mouse, Strain/Sex: B6C3F1, BDF1, and CDF1/Male (27/experimental group, 15/control group), Route: Oral, Dose: 0, 750 ppm in drinking water for 88 wk, study duration 88 wk, Tumor Site: Type of Lesion: Kidney: Renal adenoma and carcinoma - B6C3F1: 0/15 (controls), 3/26 (750 ppm), BDF1: 0/15 (controls),1/27 (750 ppm), CDF, Tumor Site: Type of Lesion: Kidney: Renal adenoma and carcinoma - B6C3F1: 0/15 (controls), 3/26 (750 ppm), BDF1: 0/15 (controls),1/27 (750 ppm), CDF active; positive | Species: RAT, Strain/Sex: F344/FEMALE, Route: ORAL, Dose: 250, 500 PPM IN DRINKING WATER FOR 110 WK, Tumor Site: Type of Lesion: KIDNEY: RENAL CELL ADENOMA, RENAL CELL ADENOCARCINOMA active; positive | Species: RAT, Strain/Sex: F344/MALE, Route: ORAL, Dose: 0, 0.02, 0.1, 0.2, 0.4 G/L IN DRINKING WATER FOR 52, 78, OR 100 WK (STUDY DURATION: 100 WK), Dose: 0, 0.02, 0.1, 0.2, 0.4 G/L IN DRINKING WATER FOR 52, 78, OR 100 WK (STUDY DURATION: 100 WK), Tumor Site: Type of Lesion: TESTICLE: MESOTHELIOMA, KIDNEY: RENAL CELL TUMOR, THYROID: TUMOR, Tumor Site: Type of Lesion: TESTICLE: MESOTHELIOMA, KIDNEY: RENAL CELL TUMOR, THYROID: TUMOR active; positive | Species: RAT, Strain/Sex: F344/MALE, Route: ORAL, Dose: 250, 500 PPM IN DRINKING WATER (HIGH DOSE REDUCED TO 400 PPM AT WK 60), Tumor Site: Type of Lesion: KIDNEY: RENAL CELL ADENOMA, RENAL CELL ADENOCARCINOMA, PERITONEAL CAVITY: MESOTHELIOMA active; positive | Species: Rat, Strain/Sex: F344 (20-41/group), Route: Oral, Dose: 0, 300, 600 mg/kg single intragastric administration, study duration 87 wk, Dose: 0, 300, 600 mg/kg single intragastric administration, study duration 87 wk, Tumor Site: Type of Lesion: Kidney: Renal adenoma and carcinoma (0/20, 0/20, 4/41) active; positive | Species: Rat, Strain/Sex: F344/Male (14-20/group), Route: Oral, Dose: 500 ppm in drinking water for 13, 26, 39, and 52 wk followed by drinking water for a study duration of 104 wk, Tumor Site: Type of Lesion: Kidney: Adenoma (10/20, 9/19,13/19, 8/14), Adenocarcinoma (2/20, 1/19, 6/19, 3/14). Peritoneum: Mesothelioma (6/20, 8/19 active; positive | Species: Rat, Strain/Sex: F344/Male (20-24/group), Route: Oral, Dose: 0, 15, 30, 60, 125, 250, 500 ppm in drinking water for 104 wk, Dose: 0, 15, 30, 60, 125, 250, 500 ppm in drinking water for 104 wk, Tumor Site: Type of Lesion: Kidney: Renal adenoma (0/19, 0/19, 0/20, 1/24, 5/24, 5/20, 6/20) and adenocarcinoma (0/19, 0/19, 0/20, 0/24, 0/24, 0/20 active; positive
inactive: Species: Mouse, Strain/Sex: B6C3F1/Female (25/ group), Route: Oral, Dose: 0, 500, 1000 ppm in drinking water for 78 wk, followed by tap water for 26 wk, study duration 104 wk, Dose: 0, 500, 1000 ppm in drinking water for 78 wk, followed by tap water for 26 wk, study duration 104 wk inactive; negative | Species: Mouse, Strain/Sex: Ogg1 wild type/Female (15/15)/(13/15), Route: Oral, Dose: 2 g/l in drinking water for 18 wk followed by 1 g/l in drinking water for 11 wk (Study duration: 52 wk) inactive; negative (kidney, liver, lung, spleen, thymus, stomach, and intestine examined); | Species: Mouse, Strain/Sex: Ogg1 wild type/Male (13/15)/(15/15), Route: Oral, Dose: 2 g/l in drinking water for 18 wk followed by 1 g/l in drinking water for 11 wk (Study duration: 52 wk) inactive; negative (kidney, liver, lung, spleen, thymus, stomach and intestine examined); | Species: Rat, Strain/Sex: Fischer 344/Female (50/group), Route: Oral, Dose: 0, 10, 30, 50 mg/kg/day by gavage once daily for 104 wk, Dose: 0, 10, 30, 50 mg/kg/day by gavage once daily for 104 wk inactive; negative | Species: Rat, Strain/Sex: Fischer 344/Male (50/group), Route: Oral, Dose: 0, 10, 30, 50 mg/kg/day by gavage once daily for 104 wk, Dose: 0, 10, 30, 50 mg/kg/day by gavage once daily for 104 wk inactive; negative

Cc1cc(=O)[nH]c(=S)[nH]1
active: Species: HAMSTER, Route: ORAL, Tumor Site: Type of Lesion: THYROID GLAND active; positive | Species: MOUSE, Route: ORAL, Tumor Site: Type of Lesion: THYROID GLAND active; positive | Species: RAT, Route: ORAL, Tumor Site: Type of Lesion: KIDNEY, THYROID GLAND active; positive

Oc1ccc(O)c(-c2ccccc2)c1
inactive: Species: MOUSE, Strain/Sex: CD-1/FEMALE, Route: DERMAL, Dose: 0, 10 MG IN DMSO 5 D/WK FOR 40 WK (STUDY DURATION: 40 WK) inactive; negative | Species: RAT, Strain/Sex: F344/FEMALE, Route: INTRAVESICULAR, Dose: 0, 1% IN 0.2 ML SALINE 2/WK FOR 5 WK (STUDY DURATION: 36 WK) inactive; negative

COC(=O)c1ccc(CNS(C)(=O)=O)cc1S(=O)(=O)NC(=O)Nc1nc(OC)cc(OC)n1
inactive: Species: Mouse, Strain/Sex: CD-1/Female (60/Group), Route: Oral, Dose: 0, 13.9, 129.8, 1356 mg/kg/day of 94.6-95.3% mesosulfuron-methyl in diet for 18 mo, study duration 18 mo, Dose: 0, 13.9, 129.8, 1356 mg/kg/day of 94.6-95.3% mesosulfuron-methyl in diet for 18 mo, study duration 18 mo inactive; negative | Species: Mouse, Strain/Sex: CD-1/Male (60/Group), Route: Oral, Dose: 0, 10.6, 102.8, 1069 mg/kg/day of 94.6-95.3% mesosulfuron-methyl in diet for 18 mo, study duration 18 mo, Dose: 0, 10.6, 102.8, 1069 mg/kg/day of 94.6-95.3% mesosulfuron-methyl in diet for 18 mo, study duration 18 mo inactive; negative | Species: Rat, Strain/Sex: Hoe:WISK(SPF71)/Female (50/Group), Route: Oral, Dose: 0, 9.39, 94.7, 952.3 mg/kg/day of 94.6% mesosulfuron-methyl in diet for 24 mo, study duration 24 mo, Dose: 0, 9.39, 94.7, 952.3 mg/kg/day of 94.6% mesosulfuron-methyl in diet for 24 mo, study duration 24 mo inactive; negative | Species: Rat, Strain/Sex: Hoe:WISK(SPF71)/Male (50/Group), Route: Oral, Dose: 0, 7.46, 73.8, 764.0 mg/kg/day of 94.6% mesosulfuron-methyl in diet for 24 mo, study duration 24 mo, Dose: 0, 7.46, 73.8, 764.0 mg/kg/day of 94.6% mesosulfuron-methyl in diet for 24 mo, study duration 24 mo inactive; negative

From PubChem BioAssay AID1259411 (Chemical Carcinogenesis Research Information System (CCRIS), 2018)
